We go through 1 compound from patent publication US20030195191A1, “N-sulfonyl hydroxamic acid derivatives as inhibitors of cd23” (priority 2000, published 2003).

A word on the pIC50: it is the IC50 on a negative log10 scale, so that one unit is a factor of ten.

pIC50: −log10 of the molar value. Some results are limits rather than exact numbers.

This assay deals with T1, human recombinant collagenase (Homo sapiens, UniProt P03956).
T1 construct: made in house; host or cells: E. coli
T1 sequence (P03956 100-469): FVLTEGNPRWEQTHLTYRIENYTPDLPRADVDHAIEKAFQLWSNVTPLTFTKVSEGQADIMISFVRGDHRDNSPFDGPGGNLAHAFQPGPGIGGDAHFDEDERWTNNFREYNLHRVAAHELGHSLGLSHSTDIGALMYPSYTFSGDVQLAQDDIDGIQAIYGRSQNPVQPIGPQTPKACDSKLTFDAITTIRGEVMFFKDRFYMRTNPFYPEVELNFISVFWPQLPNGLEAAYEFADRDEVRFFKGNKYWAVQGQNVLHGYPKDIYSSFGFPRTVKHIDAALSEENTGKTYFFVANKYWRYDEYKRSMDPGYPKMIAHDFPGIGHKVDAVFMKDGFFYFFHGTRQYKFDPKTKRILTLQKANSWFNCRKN
The assay can be described thus: Collagenase inhibition assay. Format: biochemical. Conditions: 37° C., 18 h, acetylated 3H type 1 bovine collagen. On the procedure: Procedure 2: The Ability of Test Compounds to Inhibit Collagenase was Investigated Using the Following Procedure.
Collagenase Inhibition Assay:
The potency of compounds to act as inhibitors of collagenase was determined by the method of Cawston and Barrett (Anal. Biochem. 99, 340-345, 1979), hereby incorporated by reference, whereby a 1 mM solution of the inhibitor being tested or dilutions thereof, was incubated at 37° C. for 18 h with collagen and human recombinant collagenase, from synovial fibroblasts cloned, expressed and purified from E. Coli, (buffered with 150 mM Tris, pH 7.6, containing 15 mM calcium chloride, 0.05% Brij 35, 200 mM sodium chloride and 0.02% sodium azide). The collagen was acetylated ^3H type 1 bovine collagen prepared by the method of Cawston and Murphy (methods in Enzymology 80, 711,1981) The samples were centrifuged to sediment undigested collagen and an aliquot of the radioactive supernatant removed for assay on a scintillation counter as a measure of hydrolysis. The collagenase activity in the presence of 1 mM inhibitor, or dilution thereof, was compared to activity in a control devoid of inhibitor and the results reported as that concentration effecting 50% of the collagenase (IC50).

As to `O=C(NO)[C@H]1CCCCN1S(=O)(=O)Cc1ccc2ccccc2c1` [Example 2, (R)-1-(Naphthalen-2-ylmethanesulfonyl)piperidine-2-carboxylic Acid N-hydroxyamide], the pIC50 is below 5.00.
